Results from PMC12851022, “Targeting the Spliceosomal Protein USP39 Through Allosteric Ligands and PROTAC‐Induced Degradation” (Angewandte Chemie (International Ed. in English), 2025).

What was measured:
[1] = molecular target: T1, USP39_T2 (Homo sapiens, UniProt Q53GS9); assay: Competitive FP assay, tracer USP39_B1-FITC; assay type: binding; conditions: for Binding in competitive FP screening normalized to USP39_B1: 5 µM compound concentration; for IC50: tracer USP39_B1-FITC, protein USP39_T2
T1 construct: USP39_T2 (ZNF domain only); made in house
T1 sequence (Q53GS9 103-200 limits assumed): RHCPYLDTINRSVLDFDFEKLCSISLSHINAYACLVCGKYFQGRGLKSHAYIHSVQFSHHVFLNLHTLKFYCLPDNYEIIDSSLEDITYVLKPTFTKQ
Excerpt: The compound label is taken from plot legend entries such as 'WT_USP39_B1'. / Panel e: the picture prints no compound label. WT, M1 and M2 are protein variants (targets), not substances.
To systematically investigate structure–activity relationships, we synthesized a series of derivatives by modifying the phenyl ring, either by substituting the chlorine atom with other halogens or varying the substitution pattern (Figure SI2B).
Figure 3 Design and in vitro characterization of USP39‐targeting PROTACs. a) Synthetic strategy for PROTAC synthesis. […] USP39_B1‐FITC served as the tracer, while USP39_T2 acted as the protein. The results were obtained from two independent experiments, each performed in triplicates and are presented as mean ± SD. e) Predicted results from AI‐Based DMPK analysis. MW: Molecular weight; HBA: H‐Bond acceptors; HBD: H‐Bond donors; Con_LogP: Consensus LogP; RotB: Rotatable Bonds; TPSA: Topological polar surface area; ESOL_LogS: predicted aqueous solubility (Log10 mol L^−1); GI: Gastrointestinal absorption; BBB: Blood–brain barrier. A comprehensive overview of all PROTACs and related data is available in Table SI5 of the Supporting Information.

[2] = molecular target: His-tagged USP39 and GST-tagged VHL (Homo sapiens, UniProt P40337+Q53GS9); assay: Alpha assay of ternary complex formation; assay type: binding
[3] = molecular target: T1, USP39_T2; assay: Isothermal titration calorimetry (ITC); assay type: binding
[4] = molecular target: T2, FKBP12^F36V-USP39 (Homo sapiens, UniProt, F37V); assay: dTAG system degradation of FKBP12^F36V-USP39; assay type: cell-based
T2 construct: expressed in transfected cells
Excerpt: (§1) To investigate whether USP39 can be degraded through the ubiquitin‐proteasome system, we utilized the dTAG system by fusing FKBP12^F36V to the N‐terminus of USP39 (Figure SI1A).^[ [22] ^]

[5] = molecular target: T3, FKBP12^F36V-USP39 (Homo sapiens, UniProt P62942+Q96SW2, F37V); assay: dTAG system degradation of FKBP12^F36V-USP39; assay type: cell-based
T3 construct: expressed in transfected cells
Excerpt: as §1

Sequence of His-tagged USP39 and GST-tagged VHL (Q53GS9 whole entry): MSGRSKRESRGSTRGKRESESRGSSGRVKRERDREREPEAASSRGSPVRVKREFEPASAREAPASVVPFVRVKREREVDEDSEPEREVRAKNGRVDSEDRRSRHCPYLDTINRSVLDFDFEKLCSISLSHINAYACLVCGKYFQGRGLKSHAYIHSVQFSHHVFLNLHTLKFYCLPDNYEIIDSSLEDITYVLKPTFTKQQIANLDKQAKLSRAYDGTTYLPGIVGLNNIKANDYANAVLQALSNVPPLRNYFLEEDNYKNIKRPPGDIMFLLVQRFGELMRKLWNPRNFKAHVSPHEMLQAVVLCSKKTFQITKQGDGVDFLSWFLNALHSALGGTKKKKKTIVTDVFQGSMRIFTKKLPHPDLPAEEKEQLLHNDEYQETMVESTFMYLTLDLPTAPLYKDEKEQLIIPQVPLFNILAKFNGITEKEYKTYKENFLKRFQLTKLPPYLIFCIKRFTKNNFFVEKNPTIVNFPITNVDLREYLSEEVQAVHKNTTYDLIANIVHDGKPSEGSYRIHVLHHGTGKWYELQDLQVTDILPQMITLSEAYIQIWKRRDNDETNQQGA
Sequence of His-tagged USP39 and GST-tagged VHL (P40337 whole entry): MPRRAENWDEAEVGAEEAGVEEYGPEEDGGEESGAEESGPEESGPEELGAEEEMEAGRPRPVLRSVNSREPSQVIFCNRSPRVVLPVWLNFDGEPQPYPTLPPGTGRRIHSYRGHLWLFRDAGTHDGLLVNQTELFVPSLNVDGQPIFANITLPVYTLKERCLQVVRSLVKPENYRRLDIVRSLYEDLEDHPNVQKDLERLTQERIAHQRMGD
T2 sequence (P62942 whole entry F37V): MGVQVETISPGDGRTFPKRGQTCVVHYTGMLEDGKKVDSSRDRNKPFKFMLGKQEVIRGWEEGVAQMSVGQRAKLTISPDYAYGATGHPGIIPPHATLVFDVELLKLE
T2 sequence (Q96SW2 whole entry, further chain): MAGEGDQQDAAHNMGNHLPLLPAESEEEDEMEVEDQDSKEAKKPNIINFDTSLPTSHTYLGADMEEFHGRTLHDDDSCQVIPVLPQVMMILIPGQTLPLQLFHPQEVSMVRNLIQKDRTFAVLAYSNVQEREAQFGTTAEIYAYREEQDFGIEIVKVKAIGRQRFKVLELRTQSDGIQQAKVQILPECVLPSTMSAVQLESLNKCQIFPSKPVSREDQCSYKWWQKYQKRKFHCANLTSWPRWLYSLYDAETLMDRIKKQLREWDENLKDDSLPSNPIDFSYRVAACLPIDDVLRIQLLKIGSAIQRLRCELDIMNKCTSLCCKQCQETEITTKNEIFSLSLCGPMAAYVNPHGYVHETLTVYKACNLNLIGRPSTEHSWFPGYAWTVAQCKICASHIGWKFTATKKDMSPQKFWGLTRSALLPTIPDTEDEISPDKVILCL
T3 sequence (P62942 whole entry F37V): as the sequence (P62942 whole entry F37V) above
T3 sequence (Q96SW2 whole entry): as the sequence (Q96SW2 whole entry, further chain) above

SMILES: CCOC(=O)c1csc(Nc2cccc(F)c2)n1 [USP39_B3]
- Binding in competitive FP screening normalized to USP39_B1 [1]: significantly improved binding affinity
- IC50 [1]: 1.18 µM

SMILES: CCOC(=O)c1csc(Nc2ccccc2Cl)n1 [C4]
- Binding in competitive FP screening normalized to USP39_B1 [1]: failed to show measurable binding

SMILES: CCOC(=O)c1csc(Nc2ccc(Cl)cc2)n1 [USP39_B1]
- Kd of ternary complex formation (Alpha assay) [2]: no clear interaction was observed
- Kd by ITC [3]: did not yield a clear binding isotherm
- Inhibitory effect in competitive FP assay ([1]; at 50 µM, USP39_T2, tracer USP39_B1-FITC): weak inhibitory effect
- IC50 [1]: > 50 µM

SMILES: CC[C@H](C(=O)N1CCCC[C@H]1C(=O)O[C@H](CCc1ccc(OC)c(OC)c1)c1ccccc1OCC(=O)NCCCCCCOc1cccc2c1C(=O)N(C1CCC(=O)NC1=O)C2=O)c1cc(OC)c(OC)c(OC)c1 (stereo partly drawn) [dTAG13]
- Effect on endogenous USP39 levels [4]: without affecting
- Time to degradation of FKBP12^F36V-USP39 [5]: ≤ 24 h
